Measurements as given in patent US11230547B2, “Purine inhibitors of human phosphatidylinositol 3-kinase delta” (Merck Sharp & Dohme Corp., priority 2017, dated 2022).

How the values were obtained:
PI3Kdelta = PI3Kdelta (Homo sapiens (Human), UniProt O00329); assay: HTRF PI3K biochemical assay, delta isoform; settings: 0.3 nM enzyme, 100 uM ATP, 5 uM PIP2, form screened per table
Outline: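 PI3Kδ at 0.3 nM preincubated 15 min with compound, then reacted 1 h at room temperature with 100 uM ATP and 5 uM PIP2. PIP3 product detected by competitive HTRF displacing biotin-PIP3 from GST-GRP1 PH domain, so signal falls with activity. 10-point 3-fold dose response.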

PI3Kalpha = PI3Kalpha (Homo sapiens (Human), UniProt P42336); assay: HTRF PI3K biochemical assay, alpha isoform (selectivity versus delta); settings: relative ratio PI3K-alpha IC50 value / PI3K-delta IC50 value
Sequence of PI3Kalpha (P42336 whole entry, the tested form may be a part, canonical isoform): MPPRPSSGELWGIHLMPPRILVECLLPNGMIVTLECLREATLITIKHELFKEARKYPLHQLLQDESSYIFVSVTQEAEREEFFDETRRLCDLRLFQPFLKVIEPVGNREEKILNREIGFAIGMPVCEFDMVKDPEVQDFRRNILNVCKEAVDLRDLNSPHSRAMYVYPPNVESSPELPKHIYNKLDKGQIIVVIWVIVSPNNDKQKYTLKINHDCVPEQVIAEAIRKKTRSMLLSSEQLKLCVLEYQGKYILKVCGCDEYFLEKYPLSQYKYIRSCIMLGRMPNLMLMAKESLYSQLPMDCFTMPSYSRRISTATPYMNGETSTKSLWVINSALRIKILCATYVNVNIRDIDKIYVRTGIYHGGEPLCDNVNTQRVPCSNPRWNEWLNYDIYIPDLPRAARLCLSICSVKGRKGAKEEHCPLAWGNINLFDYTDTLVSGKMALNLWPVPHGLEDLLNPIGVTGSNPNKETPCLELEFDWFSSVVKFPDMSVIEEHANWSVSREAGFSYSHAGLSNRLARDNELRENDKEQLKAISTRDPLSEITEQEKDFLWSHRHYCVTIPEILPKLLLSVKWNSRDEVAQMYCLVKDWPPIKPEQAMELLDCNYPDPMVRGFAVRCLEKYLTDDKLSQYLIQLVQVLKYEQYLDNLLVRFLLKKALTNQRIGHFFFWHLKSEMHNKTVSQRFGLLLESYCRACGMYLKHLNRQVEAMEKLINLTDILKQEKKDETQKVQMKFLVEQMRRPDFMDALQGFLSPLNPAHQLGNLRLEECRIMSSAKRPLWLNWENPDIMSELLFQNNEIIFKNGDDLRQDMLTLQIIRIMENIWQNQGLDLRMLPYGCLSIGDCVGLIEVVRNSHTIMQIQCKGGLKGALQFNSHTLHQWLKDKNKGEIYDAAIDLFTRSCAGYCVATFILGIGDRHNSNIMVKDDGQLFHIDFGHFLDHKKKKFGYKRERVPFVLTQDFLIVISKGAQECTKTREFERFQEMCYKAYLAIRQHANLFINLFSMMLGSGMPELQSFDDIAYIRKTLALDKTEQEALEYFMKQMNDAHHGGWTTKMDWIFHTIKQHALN
Sequence of PI3Kalpha (P27986 whole entry partner, the tested form may be a part, canonical isoform): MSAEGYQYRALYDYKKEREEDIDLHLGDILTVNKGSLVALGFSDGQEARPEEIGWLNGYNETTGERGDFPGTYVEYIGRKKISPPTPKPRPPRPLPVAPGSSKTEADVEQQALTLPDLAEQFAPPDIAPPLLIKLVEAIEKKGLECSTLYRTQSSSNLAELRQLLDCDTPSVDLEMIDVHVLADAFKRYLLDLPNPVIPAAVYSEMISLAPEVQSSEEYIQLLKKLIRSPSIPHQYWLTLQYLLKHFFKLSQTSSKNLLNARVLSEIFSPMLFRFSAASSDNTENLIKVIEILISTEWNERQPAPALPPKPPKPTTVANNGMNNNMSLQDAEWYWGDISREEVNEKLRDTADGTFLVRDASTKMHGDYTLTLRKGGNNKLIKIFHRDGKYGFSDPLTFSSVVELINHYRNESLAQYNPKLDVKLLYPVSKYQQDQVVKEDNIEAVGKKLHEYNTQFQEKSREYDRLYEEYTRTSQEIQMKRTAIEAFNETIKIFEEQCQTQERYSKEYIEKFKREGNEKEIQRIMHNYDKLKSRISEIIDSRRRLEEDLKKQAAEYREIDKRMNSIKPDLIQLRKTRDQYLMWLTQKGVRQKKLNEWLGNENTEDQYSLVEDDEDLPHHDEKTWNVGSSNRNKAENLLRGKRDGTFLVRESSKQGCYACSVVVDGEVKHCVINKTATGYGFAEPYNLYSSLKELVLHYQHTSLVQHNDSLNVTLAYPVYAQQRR
Outline: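 Recombinant human PI3Kα (0.5 nM) preincubated 15 min with compound, then reacted 1 h at room temperature with 100 uM ATP and 5 uM PIP2. PIP3 formation detected by HTRF competition with biotin-PIP3 for GST-GRP1 PH domain (Eu/APC, 665/620 nm); product lowers signal.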

Sequence of PI3Kdelta (O00329 whole entry, the tested form may be a part, canonical isoform): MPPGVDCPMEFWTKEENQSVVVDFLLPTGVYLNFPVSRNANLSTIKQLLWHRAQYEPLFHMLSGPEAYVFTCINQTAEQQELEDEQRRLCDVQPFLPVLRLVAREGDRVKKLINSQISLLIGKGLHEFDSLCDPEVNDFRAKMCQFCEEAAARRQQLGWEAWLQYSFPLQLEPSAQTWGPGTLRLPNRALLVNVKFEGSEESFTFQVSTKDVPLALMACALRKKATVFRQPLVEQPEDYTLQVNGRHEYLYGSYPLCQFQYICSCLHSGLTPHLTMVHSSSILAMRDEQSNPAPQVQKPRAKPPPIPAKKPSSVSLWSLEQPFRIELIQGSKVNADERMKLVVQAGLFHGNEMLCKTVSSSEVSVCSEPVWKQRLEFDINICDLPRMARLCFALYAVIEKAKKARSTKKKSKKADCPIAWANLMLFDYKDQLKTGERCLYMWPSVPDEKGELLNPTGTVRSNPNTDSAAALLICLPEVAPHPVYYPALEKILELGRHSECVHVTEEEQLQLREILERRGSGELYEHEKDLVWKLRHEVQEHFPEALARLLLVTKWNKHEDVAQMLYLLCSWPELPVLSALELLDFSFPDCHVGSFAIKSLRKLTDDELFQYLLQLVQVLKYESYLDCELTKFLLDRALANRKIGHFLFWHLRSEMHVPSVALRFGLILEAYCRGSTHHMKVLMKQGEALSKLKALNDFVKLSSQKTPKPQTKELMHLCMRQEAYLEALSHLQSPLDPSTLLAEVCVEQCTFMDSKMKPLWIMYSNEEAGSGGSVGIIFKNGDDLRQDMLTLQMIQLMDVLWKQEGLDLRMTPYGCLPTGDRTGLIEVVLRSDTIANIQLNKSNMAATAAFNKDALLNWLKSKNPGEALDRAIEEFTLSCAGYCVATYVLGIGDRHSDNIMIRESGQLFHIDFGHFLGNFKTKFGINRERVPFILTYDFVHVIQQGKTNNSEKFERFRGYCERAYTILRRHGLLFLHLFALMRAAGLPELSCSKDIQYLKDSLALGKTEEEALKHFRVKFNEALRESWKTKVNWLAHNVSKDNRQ
Sequence of PI3Kdelta (P27986 whole entry partner, the tested form may be a part, canonical isoform): as the sequence (P27986 whole entry partner, the tested form may be a part, canonical isoform) above

Structure (SMILES) | IC50 (PI3Kdelta) [nM] | Selectivity versus PI3Kalpha (PI3Kalpha)
CCNC(=O)N1C[C@@H]2CC1CN2c1nc(-c2cnn(C)c2)ncc1C#N (stereo in doubt) [Compound 2-4, (1R,4S)-5-[5-cyano-2-(1-methyl-1H-pyrazol-4-yl)pyrimidin-4-yl]-N-ethyl-2,5-diazabicyclo[2.2.1]heptane-2-carboxamide] | 2200 | 5
Cn1cc(-c2ncc(C#N)c(N3CC4C[C@H]3CN4c3ccc(C(F)F)nc3)n2)cn1 (stereo in doubt) [Compound 1-4, 4-{(1S,4R)-5-[6-(difluoromethyl)pyridin-3-yl]-2,5-diazabicyclo[2.2.1]hept-2-yl}-2-(1-methyl-1H-pyrazol-4-yl)pyrimidine-5-carbonitrile] | 540 | >10
Cn1cc(-c2ncc(C#N)c(N3CC4CCC(C3)N4c3cccc(F)c3)n2)cn1 [Compound 3-4, 4-[8-(3-fluorophenyl)-3,8-diazabicyclo[3.2.1]oct-3-yl]-2-(1-methyl-1H-pyrazol-4-yl)pyrimidine-5-carbonitrile] | 1000 | >10
Cn1cc(-c2ncc(C#N)c(N3CC4C[C@H]3CN4C(=O)C3CCC3)n2)cn1 (stereo in doubt) [Compound 2-9, 4-[(1S,4R)-5-(cyclobutylcarbonyl)-2,5-diazabicyclo[2.2.1]hept-2-yl]-2-(1-methyl-1H-pyrazol-4-yl)pyrimidine-5-carbonitrile] | 330 | >10
N#Cc1cnc(-c2cccc3cnccc23)nc1N1C[C@@H]2CC1CN2c1cccc(F)c1 (stereo in doubt) [Compound 1-21, 4-[(1R,4S)-5-(3-fluorophenyl)-2,5-diazabicyclo[2.2.1]hept-2-yl]-2-isoquinolin-5-ylpyrimidine-5-carbonitrile] | 110 | >10
Cn1cc(-c2ncc(C#N)c(N3CC4C[C@H]3CN4S(=O)(=O)C3CC3)n2)cn1 (stereo in doubt) [Compound 2-2, 4-[(1S,4R)-5-(cyclopropylsulfonyl)-2,5-diazabicyclo[2.2.1]hept-2-yl]-2-(1-methyl-1H-pyrazol-4-yl)pyrimidine-5-carbonitrile] | 1200 | >10
Cn1cc(-c2ncc(C#N)c(N3CC4C[C@H]3CN4c3cccc(OCCF)c3)n2)cn1 (stereo in doubt) [Compound 1-8, 4-{(1S,4R)-5-[3-(2-fluoroethoxy)phenyl]-2,5-diazabicyclo[2.2.1]hept-2-yl}-2-(1-methyl-1H-pyrazol-4-yl)pyrimidine-5-carbonitrile] | 79 | >10
Cn1cc(-c2ncc(C#N)c(N3CC4C[C@H]3CN4CC3CC3)n2)cn1 (stereo in doubt) [Compound 2-3, 4-[(1S,4R)-5-(cyclopropylmethyl)-2,5-diazabicyclo[2.2.1]hept-2-yl]-2-(1-methyl-1H-pyrazol-4-yl)pyrimidine-5-carbonitrile] | 1400 | 8
Cn1cc(-c2ncc(C#N)c(N3CC4C[C@H]3CN4C(=O)C3(C)COC3)n2)cn1 (stereo in doubt) [Compound 2-7, 4-{(1S,4R)-5-[(3-methyloxetan-3-yl)carbonyl]-2,5-diazabicyclo[2.2.1]hept-2-yl}-2-(1-methyl-1H-pyrazol-4-yl)pyrimidine-5-carbonitrile] | 320 | >10
COc1cccc(N2C[C@@H]3CC2CN3c2nc(-c3cnn(C)c3)ncc2C#N)c1 (stereo in doubt) [Compound 1-14, 4-[(1S,4R)-5-(3-methoxyphenyl)-2,5-diazabicyclo[2.2.1]hept-2-yl]-2-(1-methyl-1H-pyrazol-4-yl)pyrimidine-5-carbonitrile] | 71 | >10
CC(C)c1cnc(-c2cnc(N3CCN(C(=O)C4CC4)[C@H](C)C3)nc2-c2cnn(C)c2)o1 [Compound 5-5, 2-[(3R)-4-(cyclopropylcarbonyl)-3-methylpiperazin-1-yl]-5-[5-(1-methylethyl)-1,3-oxazol-2-yl]-4-(1-methyl-1H-pyrazol-4-yl)pyrimidine] | 410 | >10
N#Cc1cnc(-c2cnn3ccccc23)nc1N1C[C@@H]2CC1CN2c1cccc(F)c1 (stereo in doubt) [Compound 1-2, 4-[(1R,4S)-5-(3-fluorophenyl)-2,5-diazabicyclo[2.2.1]hept-2-yl]-2-pyrazolo[1,5-a]pyridin-3-ylpyrimidine-5-carbonitrile] | 51 | >10
Cn1cc(-c2ncc(C#N)c(N3CC4C[C@H]3CN4c3cccc(S(C)(=O)=O)c3)n2)cn1 (stereo in doubt) [Compound 1-15, 2-(1-methyl-1H-pyrazol-4-yl)-4-{(1S,4R)-5-[3-(methylsulfonyl)phenyl]-2,5-diazabicyclo[2.2.1]hept-2-yl}pyrimidine-5-carbonitrile] | 27 | >10
CNC(=O)c1cccc(N2C[C@@H]3CC2CN3c2nc(-c3cnn(C)c3)ncc2C#N)c1 (stereo in doubt) [Compound 1-13, 3-{(1R,4S)-5-[5-cyano-2-(1-methyl-1H-pyrazol-4-yl)pyrimidin-4-yl]-2,5-diazabicyclo[2.2.1]hept-2-yl}-N-methylbenzamide] | 97 | >10

More lines, now with the values ahead:

IC50 (PI3Kdelta) [nM] | Selectivity versus PI3Kalpha (PI3Kalpha) | Structure (SMILES)
12 | >10 | C[C@@H]1CN(c2nc(CCC(F)(F)F)c(C#N)c(-c3cnn(C)c3)n2)CCN1C(=O)C1CC1 [Compound 6-26, 2-[(3R)-4-(cyclopropylcarbonyl)-3-methylpiperazin-1-yl]-4-(1-methyl-1H-pyrazol-4-yl)-6-(3,3,3-trifluoropropyl)pyrimidine-5-carbonitrile]
180 | >10 | C[C@@H]1CN(c2ncc(C#N)c(-c3cn(C)nc3C#N)n2)CCN1C(=O)C1CC1 [Compound 6-13, 4-(3-cyano-1-methyl-1H-pyrazol-4-yl)-2-[(3R)-4-(cyclopropylcarbonyl)-3-methylpiperazin-1-yl]pyrimidine-5-carbonitrile]
240 | >10 | C[C@@H]1CN(c2cc(C#N)nc(-c3cnn(C)c3)n2)CCN1C(=O)C1CC1 [Compound 5-3, 6-[(3R)-4-(cyclopropylcarbonyl)-3-methylpiperazin-1-yl]-2-(1-methyl-1H-pyrazol-4-yl)pyrimidine-4-carbonitrile]
9.7 | >10 | C[C@@H]1CN(c2nc(-c3cnn(C)c3)nc(OCC(F)(F)F)c2C#N)CCN1C(=O)C1CC1 [Compound 6-22, 4-[(3R)-4-(cyclopropylcarbonyl)-3-methylpiperazin-1-yl]-2-(1-methyl-1H-pyrazol-4-yl)-6-(2,2,2-trifluoroethoxy)pyrimidine-5-carbonitrile]
80 | >10 | C[C@@H]1CN(c2nc(-c3cnn(C)c3)nc(NC3CCC3)c2C#N)CCN1C(=O)C1CC1 [Compound 6-7, 4-(cyclobutylamino)-6-[(3R)-4-(cyclopropylcarbonyl)-3-methylpiperazin-1-yl]-2-(1-methyl-1H-pyrazol-4-yl)pyrimidine-5-carbonitrile]
16 | >10 | C[C@@H]1CN(c2nc(-c3cnn(C)c3)nc(NC(=O)NCC(F)(F)F)c2C#N)CCN1C(=O)C1CC1 [Compound 6-16, 1-{5-cyano-6-[(3R)-4-(cyclopropylcarbonyl)-3-methylpiperazin-1-yl]-2-(1-methyl-1H-pyrazol-4-yl)pyrimidin-4-yl}-3-(2,2,2-trifluoroethyl)urea]
8.3 | >10 | C[C@@H]1CN(c2nc(-c3cnn(C)c3)nc(NCC(F)(F)F)c2C#N)CCN1C(=O)C1CC1 [Compound 6-4, 4-[(3R)-4-(cyclopropylcarbonyl)-3-methylpiperazin-1-yl]-2-(1-methyl-1H-pyrazol-4-yl)-6-[(2,2,2-trifluoroethyl)amino]pyrimidine-5-carbonitrile]
32 | >10 | C[C@@H]1C[C@H]1C(=O)N1CCN(c2nc(-c3cnn(C)c3)ncc2C#N)C[C@H]1C [Compound 4-8, 4-[(3R)-3-methyl-4-{[(1R,2R)-2-methylcyclopropyl]carbonyl}piperazin-1-yl]-2-(1-methyl-1H-pyrazol-4-yl)pyrimidine-5-carbonitrile]
150 | >10 | CC(C)Nc1nc(-c2cnn(C)c2)nc(N2CCN(C(=O)C3CC3)[C@H](C)C2)c1C#N [Compound 6-20, 4-[(3R)-4-(cyclopropylcarbonyl)-3-methylpiperazin-1-yl]-6-[(1-methylethyl)amino]-2-(1-methyl-1H-pyrazol-4-yl)pyrimidine-5-carbonitrile]
80 | >10 | C[C@@H]1C[C@@H]1C(=O)N1CCN(c2nc(-c3cnn(C)c3)ncc2C#N)C[C@H]1C [Compound 4-9, 4-[(3R)-3-methyl-4-{[(1S,2R)-2-methylcyclopropyl]carbonyl}piperazin-1-yl]-2-(1-methyl-1H-pyrazol-4-yl)pyrimidine-5-carbonitrile]
83 | >10 | C[C@@H]1CN(c2nc(-c3cnn(C)c3)nc(N3CC(C(F)(F)F)C3)c2C#N)CCN1C(=O)C1CC1 [Compound 6-23, 4-[(3R)-4-(cyclopropylcarbonyl)-3-methylpiperazin-1-yl]-2-(1-methyl-1H-pyrazol-4-yl)-6-[3-(trifluoromethyl)azetidin-1-yl]pyrimidine-5-carbonitrile]
